Experiment [1] has as its system Rattus norvegicus. Put plainly: Inhibitory activity against Bezold-jarisch functional assay, inducing a transient bradycardia upon intravenous administration of 5-hydroxytryptamine-(10 ug/kg) in anesthetized rats. Particulars: read-out: ID50 (the source's name).
Experiment [2] concerns Canis familiaris. Put plainly: Compound was evaluated for protection against cisplatin-induced emesis by measuring number of emetic episodes in dogs administered perorally at 0.1 mg/kg. Type of experiment: functional, Canis lupus familiaris. The conditions noted are these: route oral.
The subject of experiment [3] is Canis familiaris. Put plainly: Compound was evaluated for protection against cisplatin-induced emesis by measuring number of emetic episodes in dogs administered perorally at 0.3 mg/kg. Format: functional, Canis lupus familiaris. The conditions noted are these: route oral.
The test system of experiment [4] is Canis familiaris. Description: Compound was evaluated for protection against cisplatin-induced emesis by measuring number of emetic episodes in dogs administered perorally at 1.0 mg/kg. Format: functional, Canis lupus familiaris. Particulars: route oral.
Experiment [5] concerns Canis familiaris. Put plainly: Compound was evaluated for number of retches in dogs administered perorally at 0.3 mg/kg. The conditions noted are these: route oral. Format: functional, Canis lupus familiaris.
The subject of experiment [6] is Canis familiaris. Description: Compound was evaluated for protection against cisplatin-induced emesis by measuring number of retches in dogs administered intravenously at 0.03 mg/kg. Format: functional, Canis lupus familiaris. The conditions noted are these: route intravenous.
The test system of experiment [7] is Canis familiaris. Put plainly: Compound was evaluated for protection against cisplatin-induced emesis by measuring number of retches in dogs administered intravenously at 0.1 mg/kg. Format: functional, Canis lupus familiaris. Particulars: route intravenous.
The test system of experiment [8] is Canis familiaris. Put plainly: Compound was evaluated for protection against cisplatin-induced emesis by measuring number of retches in dogs administered intravenously at 0.3 mg/kg. Particulars: route intravenous. Type of experiment: functional, Canis lupus familiaris.
Experiment [9] has as its system Canis familiaris. Put plainly: Compound was evaluated for protection against cisplatin-induced emesis by measuring number of retches in dogs administered perorally at 1.0 mg/kg. Format: functional, Canis lupus familiaris. The conditions noted are these: route oral.
For experiment [10], the system named is Canis familiaris. Description: Compound was evaluated for protection against cisplatin-induced emesis by measuring number of emetic episodes in dogs administered intravenously at 0.3 mg/kg. Format: functional, Canis lupus familiaris. Particulars: route intravenous.
The subject of experiment [11] is Canis familiaris. Put plainly: Compound was evaluated for protection against cisplatin-induced emesis by measuring number of emetic episodes in dogs administered intravenously at 0.03 mg/kg. Format: functional, Canis lupus familiaris. Particulars: route intravenous.
Experiment [12] has as its system Canis familiaris. Put plainly: Compound was evaluated for protection against cisplatin-induced emesis by measuring number of emetic episodes in dogs administered intravenously at 0.1 mg/kg. The conditions noted are these: route intravenous. Format: functional, Canis lupus familiaris.
Experiment [13] in a line: Compound was evaluated for protection against cisplatin-induced emesis by measuring number of retches in ferrets administered intravenously at 0.01 mg/kg. Particulars: route intravenous. Type of experiment: functional, Mustela putorius furo.
The nature of experiment [14]: Compound was evaluated for protection against cisplatin-induced emesis by measuring number of retches in ferrets administered intravenously at 0.03 mg/kg. Format: functional, Mustela putorius furo. Particulars: route intravenous.
Experiment [15] in a line: Compound was evaluated for protection against cisplatin-induced emesis by measuring number of retches in ferrets administered intravenously at 0.1 mg/kg. Format: functional, Mustela putorius furo. The conditions noted are these: route intravenous.
The nature of experiment [16]: Compound was evaluated for protection against cisplatin-induced emesis by measuring number of retches in ferrets administered intravenously at 0.3 mg/kg. Type of experiment: functional, Mustela putorius furo. Particulars: route intravenous.
A short description of experiment [17]: Compound was evaluated for protection against cisplatin-induced emesis by measuring number of retches in ferrets administered perorally at 0.1 mg/kg. Format: functional, Mustela putorius furo. The conditions noted are these: route oral.
A short description of experiment [18]: Compound was evaluated for protection against cisplatin-induced emesis by measuring number of retches in ferrets administered perorally at 0.3 mg/kg. Format: functional, Mustela putorius furo. Particulars: route oral.
A short description of experiment [19]: Compound was evaluated for protection against cisplatin-induced emesis by measuring number of retches in ferrets administered perorally at 1.0 mg/kg. Type of experiment: functional, Mustela putorius furo. Particulars: route oral.
Experiment [20] in a line: Compound was evaluated for number of emetic episodes in ferrets administered intravenously at 0.01 mg/kg. The conditions noted are these: route intravenous. Format: functional, Mustela putorius furo.
Experiment [21] can be described thus: Compound was evaluated for protection against cisplatin-induced emesis by measuring number of emetic episodes in ferrets administered intravenously at 0.03 mg/kg. Type of experiment: functional, Mustela putorius furo. Particulars: route intravenous.
Experiment [22] can be described thus: Compound was evaluated for protection against cisplatin-induced emesis by measuring number of emetic episodes in ferrets administered intravenously at 0.1 mg/kg. Format: functional, Mustela putorius furo. The conditions noted are these: route intravenous.
The nature of experiment [23]: Compound was evaluated for protection against cisplatin-induced emesis by measuring number of emetic episodes in ferrets administered intravenously at 0.3 mg/kg. Format: functional, Mustela putorius furo. Particulars: route intravenous.
Experiment [24] in a line: Compound was evaluated for protection against cisplatin-induced emesis by measuring number of emetic episodes in ferrets administered perorally at 0.1 mg/kg. Particulars: route oral. Type of experiment: functional, Mustela putorius furo.
Experiment [25] in a line: Compound was evaluated for protection against cisplatin-induced emesis by measuring number of emetic episodes in ferrets administered perorally at 0.3 mg/kg. Particulars: route oral. Format: functional, Mustela putorius furo.
Experiment [26] in a line: Compound was evaluated for protection against cisplatin-induced emesis by measuring number of emetic episodes in ferrets administered perorally at 1.0 mg/kg. Type of experiment: functional, Mustela putorius furo. The conditions noted are these: route oral.
Experiment [27] concerns Canis familiaris. Description: Compound was evaluated for protection against cisplatin-induced emesis by measuring number of retches in dogs administered perorally at 0.1 mg/kg. Particulars: route oral. Format: functional, Canis lupus familiaris.

Some results are limits rather than exact numbers.

Regarding `Cc1[nH]cnc1Cn1ccc2c(N)cccc2c1=O`, the ED50 in experiment [1] was over 100 µg/kg.

In the case of `Cc1[nH]cnc1Cn1cccc(-c2cccn2C)c1=O`, in experiment [1], the ED50 came to 43.3 µg/kg. Still for that read-out and setting: the figure for `COc1cc2ccccc2c2c(=O)n(Cc3[nH]cnc3C)ccc12` is 2.53 µg/kg; for `Cc1[nH]cnc1Cn1ccc2cc(N)ccc2c1=O` it is 37.9 µg/kg.

Take `Cc1[nH]cnc1Cn1ncc2ccccc2c1=O`: the ED50 in [1] was over 100 µg/kg. On the same count and under the same terms, the figure for `Cc1nc[nH]c1Cn1ccc2cc(C)c3ccccc3c2c1=O` is 0.82 µg/kg; for `Cc1nc[nH]c1Cn1ccc2c(=O)n(C)c3ccccc3c2c1=O` it is 0.23 µg/kg. On the same count and under the same terms, the figure for `Cc1[nH]cnc1Cn1ccc2c(c1=O)-c1ccccc1CC2` is 0.46 µg/kg. Same read-out and setting: the figure for `Cc1ccc(-c2cccn(Cc3[nH]cnc3C)c2=O)o1` is 9.18 µg/kg; for `Cc1[nH]cnc1Cn1cccc(-c2cccc(F)c2)c1=O` it is 29.9 µg/kg; for `Cc1[nH]cnc1Cn1ccc2ccc3cccnc3c2c1=O` it is 24.3 µg/kg. In the case of `Cc1[nH]cnc1Cn1cccc(-c2ccoc2)c1=O`, the ED50 in experiment [1] is 8.65 µg/kg. On the same count and under the same terms, under `Cc1[nH]cnc1Cn1cccc(-c2ccccc2O)c1=O` stands 40 µg/kg. Turning to `Cc1[nH]cnc1Cn1ccc2ccc3c(ccn3C)c2c1=O`, the ED50 in experiment [1] is 1.64 µg/kg.

`Cc1[nH]cnc1Cn1cccc(-c2ccccn2)c1=O`: in experiment [1], the ED50 is 10.4 µg/kg. On the same count and under the same terms, the figure for `Cc1[nH]cnc1Cn1cccc(-c2ccsc2)c1=O` is 3.1 µg/kg; for `Cc1ccc(-c2cccn(Cc3[nH]cnc3C)c2=O)s1` it is 3.62 µg/kg; for `Cc1nc[nH]c1Cn1ccc2c(C)cc3ccccc3c2c1=O` it is 1.09 µg/kg.

As to `Cc1[nH]cnc1Cn1ccc2cnc3ccccc3c2c1=O`, in [1], the ED50 was 0.28 µg/kg. For the compound `Cc1[nH]cnc1Cn1ccc2ccc3ccccc3c2c1=O`, the “No. of emetic episodes” value is 10.8 in experiment [2]; 4 in [3]; 1.8 in experiment [4]; 3.4 in [10]; 10.2 in experiment [11]; 4.4 in experiment [12]. The “No. of emetic episodes” value is 10.8 in [20]; 5 in experiment [21]; 2 in [22]; 0 in experiment [23]; 4.8 in [24]; 1.3 in experiment [25]. For the same compound, in experiment [26], the “No. of emetic episodes” value came to 0. For the same compound, the No. of retches in experiment [5] amounted to 27.8; in [6], 143.8; in experiment [7], 53.8; in experiment [8] it was 42.4; in [9] it was 26.3; in [13] it was 144.5. The No. of retches in [14] is recorded as 79; in [15] it was 65; in [16] it was 11.8; in experiment [17] it was 89.3; in experiment [18] it was 31.5; in experiment [19], 1. Also, the No. of retches in experiment [27] worked out at 133.2. Also, the ED50 in [1] is 0.3 µg/kg. Regarding `Cc1[nH]cnc1Cn1ccc2ncc3ccccc3c2c1=O`, the ED50 in [1] stood at 0.16 µg/kg.

With `Cc1[nH]cnc1Cn1ccc2c(Cl)cc(Cl)cc2c1=O`, the ED50 in experiment [1] came to 34.6 µg/kg. Consider `Cc1[nH]cnc1Cn1ccc2ccc3ncccc3c2c1=O`, for which the ED50 in [1] amounted to 2.86 µg/kg. Still for that read-out and setting: under `Cc1[nH]cnc1Cn1ccc2cc(Br)c3ccccc3c2c1=O` stands 6.21 µg/kg. The same measure, in the same setting: under `COc1ccc(-c2cccn(Cc3[nH]cnc3C)c2=O)cc1` stands over 100 µg/kg.

Turning to `Cc1[nH]cnc1Cn1ccc2cc3c(cc2c1=O)OCCO3`, the ED50 in [1] is over 100 µg/kg.

`Cc1[nH]cnc1Cn1ccc2c(CO)cc3ccccc3c2c1=O`: in experiment [1], the ED50 was 0.68 µg/kg.

Source of the values: ChEMBL document CHEMBL1125546, “Novel 5-HT3 antagonists. Isoquinolinones and 3-aryl-2-pyridones” (J Med Chem, 1992).
